Reference: patent publication US20190177284A1, “TETRAZOLYL-CONTAINING CYCLOPROPANECARBOXAMIDES” (Bayer Pharma Aktiengesellschaft, priority 2017, published 2019)
Blank lines part the entries; values can stand above or below the compound they belong to.

Biological target: T1, human Bradykinin B1 receptor (Homo sapiens, UniProt P46663)
T1 construct: host or cells: CHO-K1
T1 sequence (P46663 1-353): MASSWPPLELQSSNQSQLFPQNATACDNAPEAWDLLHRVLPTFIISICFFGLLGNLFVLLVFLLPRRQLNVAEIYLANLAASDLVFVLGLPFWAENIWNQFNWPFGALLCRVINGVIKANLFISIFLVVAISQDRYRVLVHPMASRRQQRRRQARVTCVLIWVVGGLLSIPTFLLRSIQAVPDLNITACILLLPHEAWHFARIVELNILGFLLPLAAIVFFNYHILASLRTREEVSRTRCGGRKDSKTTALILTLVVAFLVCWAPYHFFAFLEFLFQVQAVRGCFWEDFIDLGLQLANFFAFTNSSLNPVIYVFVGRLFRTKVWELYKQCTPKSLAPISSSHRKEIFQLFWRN
Assay: Calcium flux Assay (FLIPR) with cells expressing human Bradykinin B1 receptor (hB1)
Format: cell-based
Details: absence of 0.1% BSA in assay buffer; CHO-K1 cell line expressing human B1 receptor; agonist Lys-(Des-Arg)-Bradykinin; read-out: hB1 free IC50
Description: The potency to inhibit the Bradykinin B1 receptor was determined for the compound examples of this invention in a cell-based fluorescent calcium-mobilisation assay. The assay measures the ability of compound examples to inhibit Bradykinin B1 receptor agonist-induced increase of intracellular free Ca^2+ in the cell line expressing Bradykinin B1 receptor. Specifically, calcium indicator-loaded cells are pre-incubated in the absence or presence of different concentrations of compound examples followed by the stimulation with a selective Bradykinin B1 receptor agonist peptide. The change of the intracellular Ca^2+ concentration is monitored with a fluorescent plate reader FLIPR^TETRA®
Calcium flux Assays (FLIPR) with cells expressing human Bradykinin B1 receptor (hB1) Calcium flux Assay (FLIPR) with recombinant cells for Bradykinin B1 receptor antagonist, either in the presence (hB1 IC50) or absence (hB1 free IC50) of 0.1% Bovine Serum Albumin (BSA) in assay buffer.
CHO—K1 cell line expressing human B1 receptor was purchased from Euroscreen (Gosselies, Belgium, with reference name hB1-D1). The cells were grown in Nutrient Mixture Ham's F12 (Sigma) containing 10% Foetal bovine serum (Sigma) and 400 μg/mL G418 (Sigma), 5 μg/mL puromycin (Sigma).
For the calcium flux assay, 80% confluent cells were detached from the culture vessels with Versene (Gibco), and seeded into 384-well plates (Cell binding Surface; Corning, N.Y.; #3683) at a density of 15,000 cells per well. Cells were seeded in a volume of 50 μL in medium without antibiotics and incubated overnight in a humidified atmosphere with 5% CO2 at 37° C. […] The calcium indicator loaded cells were incubated at 37° C. for 2 hrs. Extracellular dye was then removed and each well was filled with 45 μL of assay buffer. Cell plates were kept in dark until used. Example compounds were assayed at 8 concentrations in triplicate. Serial 10-fold dilutions in 100% DMSO were made at a 100-times higher concentration than the final concentration, and then diluted 1:10 in assay buffer. 5 μL of each diluted compound was added to the well of cell plates (yielding final concentration with 1% DMSO), and incubated for 30 min at 28° C. before the addition of B1 receptor agonist on the FLIPR instrument.
Agonist plates contained the agonist Lys-(Des-Arg)-Bradykinin (Bachem, Brackley) at 3.5×EC90 in assay buffer with 1% DMSO. The addition of agonist 20 μl per well to the assay plate was carried out on the FLIPR instrument while continuously monitoring Ca^2+-dependent fluorescence at 538 nm. A peptide antagonist Lys-(Des-Arg-Leu)-Bradykinin (Bachem, Brackley) at 20 μM was used to determine the full inhibition as control.
Peak fluorescence was used to determine the response to agonist obtained at each concentration of example compound by the following equation:
% Response=100*(RFU(example compound)−RFU(control))/(RFU(DMSO)−RFU(control)) • RFU means relative fluorescence units. • Control means full inhibition by the peptide antagonist Lys-(Des-Arg-Leu)-Bradykinin at 20
The response values were plotted against the logarithm of the example compound concentrations. The example compounds were tested in triplicates per plate and mean values were plotted in Excel XLfit to determine IC50 values, percentage of maximal inhibition and the Hill slopes.
IC50 values of example compounds in Calcium flux Assay (FLIPR) as shown in table 1 were determined according to the protocol described above in the absence of 0.1% BSA in assay buffer.

Structure (SMILES): O=C(c1ccc(NC(=O)C2(c3cccc(Cl)c3)CC2)cc1-c1nnn[nH]1)N1CCCCC1 [Example 33, 1-(3-Chlorophenyl)-N-[4-(piperidin-1-ylcarbonyl)-3-(1H-tetrazol-5-yl)phenyl]cyclopropanecarboxamide]
- IC50: 633 nM

Structure (SMILES): CC(C)COC(=O)c1ccc(NC(=O)C2(c3ccc(C(F)(F)F)cc3F)CC2)cc1-c1nnn[nH]1 [Example 28, Isobutyl 4-[({1-[2-fluoro-4-(trifluoromethyl)phenyl]cyclopropyl}carbonyl)amino]-2-(1H-tetrazol-5-yl)benzoate]
- IC50: 3 nM

Structure (SMILES): CN(C(=O)c1ccc(NC(=O)C2(c3ccc(C(F)(F)F)cc3F)CC2)cc1-c1nnn[nH]1)C1CCCC1 [Example 41, N-cyclopentyl-4-[({1-[2-fluoro-4-(trifluoromethyl)phenyl]cyclopropyl}carbonyl)amino]-N-methyl-2-(1H-tetrazol-5-yl)benzamide]
- IC50: 205 nM

Structure (SMILES): CN(C(=O)c1ccc(NC(=O)C2(c3cccc(Cl)c3)CC2)cc1-c1nnn[nH]1)C1CCOCC1 [Example 46, 4-({[1-(3-Chlorophenyl)cyclopropyl]carbonyl}amino)-N-methyl-N-(tetrahydro-2H-pyran-4-yl)-2-(1H-tetrazol-5-yl)benzamide]
- IC50: 3300 nM

Structure (SMILES): O=C(c1ccc(NC(=O)C2(c3ccc(C(F)(F)F)cc3F)CC2)cc1-c1nnn[nH]1)N1CCCCC1 [Example 34, 1-[2-Fluoro-4-(trifluoromethyl)phenyl]-N-[4-(piperidin-1-ylcarbonyl)-3-(1H-tetrazol-5-yl)phenyl]cyclopropanecarboxamide]
- IC50: 70 nM

Structure (SMILES): CN(CC1CCOCC1)C(=O)c1ccc(NC(=O)C2(c3ccc(C(F)(F)F)cc3F)CC2)cc1-c1nnn[nH]1 [Example 49, 4-[({1-[2-Fluoro-4-(trifluoromethyl)phenyl]cyclopropyl}carbonyl)amino]-N-methyl-N-(tetrahydro-2H-pyran-4-ylmethyl)-2-(1H-tetrazol-5-yl)benzamide]
- IC50: 1800 nM

Structure (SMILES): CN(C(=O)c1ccc(NC(=O)C2(c3ccc(C(F)(F)F)cc3F)CC2)cc1-c1nnn[nH]1)C1CCOCC1 [Example 47, 4-[({1-[2-Fluoro-4-(trifluoromethyl)phenyl]cyclopropyl}carbonyl)amino]-N-methyl-N-(tetrahydro-2H-pyran-4-yl)-2-(1H-tetrazol-5-yl)benzamide]
- IC50: 445 nM

Structure (SMILES): CC[C@H](C)OC(=O)c1ccc(NC(=O)C2(c3ccc(C(F)(F)F)cc3F)CC2)cc1-c1nnn[nH]1 [Example 25, (2S)-Butan-2-yl 4-[({1-[2-fluoro-4-(trifluoromethyl)phenyl]cyclopropyl}carbonyl)amino]-2-(1H-tetrazol-5-yl)benzoate]
- IC50: 3 nM

Structure (SMILES): O=C(OC1CCOC1)c1ccc(NC(=O)C2(c3ccc(C(F)(F)F)cc3F)CC2)cc1-c1nnn[nH]1 (racemic) [Example 18, Tetrahydrofuran-3-yl 4-[({1-[2-fluoro-4-(trifluoromethyl)phenyl]cyclopropyl}carbonyl)amino]-2-(1H-tetrazol-5-yl)benzoate]
- IC50: 7 nM

Structure (SMILES): O=C(O[C@H]1CCOC1)c1c(F)cc(NC(=O)C2(c3ccc(C(F)(F)F)cc3F)CC2)cc1-c1nnn[nH]1 [Example 62, (3S)-tetrahydrofuran-3-yl 2-fluoro-4-[({1-[2-fluoro-4-(trifluoromethyl)phenyl]cyclopropyl}carbonyl)amino]-6-(1H-tetrazol-5-yl)benzoate]
- IC50: 2 nM

Structure (SMILES): CN1CCC(OC(=O)c2ccc(NC(=O)C3(c4ccc(C(F)(F)F)cc4F)CC3)cc2-c2nnn[nH]2)CC1 [Example 23, 1-Methylpiperidin-4-yl 4-[({1-[2-fluoro-4-(trifluoromethyl)phenyl]cyclopropyl}carbonyl)amino]-2-(1H-tetrazol-5-yl)benzoate]
- IC50: 319 nM

Further compounds by falling IC50, results first:

- IC50: 1530 nM
Structure (SMILES): O=C(N[C@H]1CCOC1)c1ccc(NC(=O)C2(c3ccc(C(F)(F)F)cc3F)CC2)cc1-c1nnn[nH]1 [Example 54, 4-[({1-[2-Fluoro-4-(trifluoromethyl)phenyl]cyclopropyl}carbonyl)amino]-N-[(3S)-tetrahydrofuran-3-yl]-2-(1H-tetrazol-5-yl)benzamide]

- IC50: 143 nM
Structure (SMILES): COC(C)(C)CNC(=O)c1ccc(NC(=O)C2(c3ccc(C(F)(F)F)cc3F)CC2)cc1-c1nnn[nH]1 [Example 52, 4-[({1-[2-Fluoro-4-(trifluoromethyl)phenyl]cyclopropyl}carbonyl)amino]-N-(2-methoxy-2-methylpropyl)-2-(1H-tetrazol-5-yl)benzamide]

- IC50: 136 nM
Structure (SMILES): CCOC(=O)c1ccc(NC(=O)C2(c3cccc(Cl)c3)CC2)cc1-c1nnn[nH]1 [Example 1, Ethyl 4-({[1-(3-chlorophenyl)cyclopropyl]carbonyl}amino)-2-(1H-tetrazol-5-yl)benzoate]

- IC50: 51 nM
Structure (SMILES): Cc1ccc(NC(=O)c2c(F)cc(NC(=O)C3(c4ccc(C(F)(F)F)cc4F)CC3)cc2-c2nnn[nH]2)nc1 [Example 63, 2-Fluoro-4-[({1-[2-fluoro-4-(trifluoromethyl)phenyl]cyclopropyl}carbonyl)amino]-N-(5-methylpyridin-2-yl)-6-(1H-tetrazol-5-yl)benzamide]

- IC50: 22 nM
Structure (SMILES): O=C(OC1CCOCC1)c1ccc(NC(=O)C2(c3ccc(C(F)(F)F)cc3F)CC2)cc1-c1nnn[nH]1 [Example 21, Tetrahydro-2H-pyran-4-yl 4-[({1-[2-fluoro-4-(trifluoromethyl)phenyl]cyclopropyl}carbonyl)amino]-2-(1H-tetrazol-5-yl)benzoate]

- IC50: 13 nM
Structure (SMILES): O=C(NCC1CCCCC1)c1ccc(NC(=O)C2(c3ccc(C(F)(F)F)cc3F)CC2)cc1-c1nnn[nH]1 [Example 44, N-(cyclohexylmethyl)-4-[({1-[2-fluoro-4-(trifluoromethyl)phenyl]cyclopropyl}carbonyl)amino]-2-(1H-tetrazol-5-yl)benzamide]

- IC50: 13 nM
Structure (SMILES): O=C(O[C@H]1CCOC1)c1ccc(NC(=O)C2(c3ccc(C(F)(F)F)cc3F)CC2)cc1-c1nnn[nH]1 [Example 19, (3S)-Tetrahydrofuran-3-yl 4-[({1-[2-fluoro-4-(trifluoromethyl)phenyl]cyclopropyl}carbonyl)amino]-2-(1H-tetrazol-5-yl)benzoate]

- IC50: 10 nM
Structure (SMILES): CCC(C)OC(=O)c1ccc(NC(=O)C2(c3cccc(Cl)c3)CC2)cc1-c1nnn[nH]1 (racemic) [Example 3, sec-Butyl 4-({[1-(3-chlorophenyl)cyclopropyl]carbonyl}amino)-2-(1H-tetrazol-5-yl)benzoate]

- IC50: 3 nM
Structure (SMILES): CC[C@@H](C)OC(=O)c1ccc(NC(=O)C2(c3ccc(OC(F)(F)F)cc3F)CC2)cc1-c1nnn[nH]1 [Example 26, (2R)-Butan-2-yl 4-[({1-[2-fluoro-4-(trifluoromethoxy)phenyl]cyclopropyl}carbonyl)amino]-2-(1H-tetrazol-5-yl)benzoate]

- IC50: 3 nM
Structure (SMILES): CCC(C)OC(=O)c1ccc(NC(=O)C2(c3ccc(OC(F)(F)F)cc3F)CC2)cc1-c1nnn[nH]1 (racemic) [Example 11, sec-Butyl 4-[({1-[2-fluoro-4-(trifluoromethoxy)phenyl]cyclopropyl}carbonyl)amino]-2-(1H-tetrazol-5-yl)benzoate]

- IC50: 2 nM
Structure (SMILES): O=C(OC1CCCC1)c1c(F)cc(NC(=O)C2(c3ccc(C(F)(F)F)cc3F)CC2)cc1-c1nnn[nH]1 [Example 61, Cyclopentyl 2-fluoro-4-[({1-[2-fluoro-4-(trifluoromethyl)phenyl]cyclopropyl}-carbonyl)amino]-6-(1H-tetrazol-5-yl)benzoate]
